Results taken from PMC11417994, “Cyclohexanediamine Triazole (CHDT) Functionalization Enables Labeling of Target Molecules with Al^18F/^68Ga/^111In” (Bioconjugate Chemistry, 2024).
Several values for one entry are separate records, joined by “and”; a condition that tells them apart may be missing. Identical values can stand only once.

Assays:
PSMA [1] = biological target: T1, PSMA (Homo sapiens, UniProt Q04609); assay: Competition binding assay, LNCaP cell homogenates, radioligand [177Lu]Lu-PSMA-617; conditions: nonlabeled compounds; [177Lu]Lu-PSMA-617 12 nM; 37 °C, 60 min; Table 2 mean (SEM), Table S3 individual experiments and mean
T1 construct: Detection of endogenous PSMA expression in LNCaP and PC3 cells relative to β-actin expression by Western; host or cells: LNCaP human prostate carcinoma cells (monolayer, spheroids or Potter-Elvehjem homogenates)
T1 sequence (Q04609 whole entry): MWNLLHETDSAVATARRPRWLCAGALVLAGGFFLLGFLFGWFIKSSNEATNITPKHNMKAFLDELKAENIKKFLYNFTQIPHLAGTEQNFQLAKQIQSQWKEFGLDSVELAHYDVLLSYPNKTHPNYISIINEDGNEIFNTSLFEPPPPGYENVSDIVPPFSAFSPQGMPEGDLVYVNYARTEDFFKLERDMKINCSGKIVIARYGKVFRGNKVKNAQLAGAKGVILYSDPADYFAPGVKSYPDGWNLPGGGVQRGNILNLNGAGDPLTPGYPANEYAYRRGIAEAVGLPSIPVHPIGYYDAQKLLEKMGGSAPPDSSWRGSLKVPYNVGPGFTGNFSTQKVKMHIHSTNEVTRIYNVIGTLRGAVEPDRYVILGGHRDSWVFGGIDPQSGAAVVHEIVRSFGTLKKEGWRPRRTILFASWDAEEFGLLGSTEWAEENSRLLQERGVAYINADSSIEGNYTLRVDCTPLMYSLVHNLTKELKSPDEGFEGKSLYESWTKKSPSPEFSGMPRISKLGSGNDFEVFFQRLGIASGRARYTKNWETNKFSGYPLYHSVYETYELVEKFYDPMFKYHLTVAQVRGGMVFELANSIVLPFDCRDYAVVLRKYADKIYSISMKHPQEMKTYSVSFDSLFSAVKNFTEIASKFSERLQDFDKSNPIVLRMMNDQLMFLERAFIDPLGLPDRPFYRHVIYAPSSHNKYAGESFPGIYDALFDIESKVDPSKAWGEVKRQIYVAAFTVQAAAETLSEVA
Method: The binding affinity of the nonlabeled CHDT-PSMA-1/2/3, PSMA-1007, PSMA-617, and KuE was assessed in competition binding assays using LNCaP cell homogenates (∼1 × 10^6 cells/mL using Potter-Elvehjem) and the radioligand [^177Lu]Lu-PSMA-617 (n = 5 for CHDT-PSMA-1; n = 4 for CHDT-PSMA-2/3; n = 2 for PSMA-1007; n = 8 for PSMA-617; n = 6 for KuE). […] The assays were performed in a final volume of 200 μL. The incubation was stopped by washing the homogenate with cold PBS four times using a filter (Whatman GF/C, 90 min presoaked in 0.3% polyethylenimine) in a cell harvester (Brandel, USA). The radioactivity bound to the filter was measured in a gamma counter. Filter binding was determined for adjacent samples without cell homogenate. The experiments were performed two to four times in triplicates or quadruplicates. Inhibitory constants (Ki) were derived from nonlinear regression according to the model of “One site – Fit Ki” as implemented in GraphPad Prism 10. The Kd value of [^177Lu]Lu-PSMA-617 was determined in saturation binding assays using LNCaP cell homogenates to be 15.2 (±2.1) nM.

PSMA [2] = biological target: T1, PSMA; assay: Saturation binding (surface-bound and internalized), intact LNCaP cells as monolayer
Excerpt: (§1) In addition to assessing the binding affinities for nonlabeled CHDT-PSMA-1/2/3, we sought to characterize the saturation binding of the Al^18F-, ^68Ga-, and ^111In-labeled compounds using LNCaP cells cultured in monolayers and as spheroids. The saturation binding curves for Al[^18F]F-CHDT-PSMA-1/2/3 are depicted in Figure 3, while the graphs for [^18F]PSMA-1007 and ^68Ga- and ^111In-labeled CHDT-PSMA-1/2/3 can be found in Figures S7–S9 in the Supporting Information. The binding parameters (Kd and Bmax) for Al[^18F]F-CHDT-PSMA-1/2/3 and [^18F]PSMA-1007 are summarized in Table 3 (for the ^68Ga- and ^111In-labeled compounds see Tables S4 and S5 in the Supporting Information). For the saturation binding assays, we recorded surface-bound radioligand (named “binding”), which refers to bound radioligand that can be removed by acid wash, and internalized or acid-resistant radioligand (named “internalization”), which refers to radioligand that remains cell-bound after acid wash. Consequently, two saturation binding plots were obtained and two sets of binding parameters (Kd/Bmax and Kd,int/Bmax,int) were derived.
(§2) For saturation assays in well plates, monolayers of LNCaP (sowing 5 × 10^4 cells/well in 48-well plates 2 days before the assay), as well as LNCaP spheroids were incubated with radiolabeled CHDT-PSMA-1/2/3 and PSMA-1007 (0.2 nM to 100 nM) with adjacent samples receiving KuE (0.8 mM) at 37 °C for 2 h. The number of experiments can be derived from the data in the Tables S4, S5, and S7 in the Supporting Information. After removing the incubation medium and washing of cells with ice-cold PBS (containing Mg^2+ and Ca^2+) the surface-bound activity was stripped with 4 °C cold acid-wash buffer (0.2 M glycine, 0.15 M NaCl, pH 3.0) for 10 min. The acid wash buffer was transferred from the wells to measuring tubes, as was the PBS buffer after washing once. Cytosolic activity (internalized radioligand) was determined after treatment with cell lysis buffer (1% SDS in 0.1 M NaOH) at 37 °C for 30 min. Cell surface and cytosolic activity were measured separately in a gamma counter. Time-depending internalization assays were performed only with cells in monolayer. The incubation (radioligand concentration 13 nM) for these assays was terminated after 10 min, 1 and 3 h, with ^111In and ^177Lu additionally after 24 and 48 h at 37 °C, respectively. During the internalization assays adjacent samples received KuE (0.8 mM) for PSMA blocking, methyl-β-cyclodextrin (MβCD; 3 mM) or KuE together with MβCD, 1 h before radioligand application. The number of experiments can be derived from the data of Figure S11 and associated table and from Table S8 in the Supporting Information.
(§3) Dissociations constants (Kd and Kd,int), as well as maximal binding capacities (Bmax and Bmax,int), were derived from specific binding data by nonlinear regression according to the model of “One site-specific binding” as implemented in GraphPad Prism 10. Protein content was determined using the bicinchoninic acid protein assay kit (Pierce, Thermo Scientific) to calculate the binding capacities in pmol/mg and for the time-depending internalization the internalized percent of administrated dose per μg protein (% AD/μg protein).

PSMA [3] = biological target: T1, PSMA; assay: Time-depending internalization assay, LNCaP cells as monolayer; assay type: cell-based; conditions: individual experiments; for specific internalization in the presence of MβCD: MβCD 3 mM; for specific internalization: radioligand 13 nM
Method: as §2, §3

LNCaP tumor xenograft = assay: Small animal PET imaging, LNCaP tumor xenograft mouse model; assay type: in vivo, mice
Method: All animal experiments were performed in accordance with the German Animal Welfare regulations and were approved by the local ethics committee for animal experiments (DD24.1-51-31/449/49, Oct 26, 2018). A PSMA-positive prostate cancer xenograft model was generated by subcutaneous injection of human LNCaP cells into the right shoulder of 8–12 week-old male nude mice (Rj:NMRI-Foxn1^nu/nu, Janvier Laboratories, Le Genest-Saint-Isle, France). Imaging studies were performed when subcutaneous tumors reached a diameter of at least 6 mm. General anesthesia of the animals was induced and maintained by inhalation of 10% (v/v) desflurane in 30/70% (v/v) oxygen/air. Animals were continuously warmed at 37 °C during anesthesia.
Positron emission tomography (PET) was performed in vivo using the nanoScan PET/CT scanner (Mediso Medical Imaging Systems, Budapest, Hungary), especially suited for small animals. Each animal received 8–12 MBq of the reference compound [^18F]PSMA-1007 or the radioligands Al[^18F]F-CHDT-PSMA-1/2/3 in phosphate-buffered saline by intravenous injection via a tail vein catheter. At the time of injection, molar activities and radiochemical purities of the compounds were as follows: [^18F]PSMA-1007 (15 MBq/nmol, >99%); Al[^18F]F-CHDT-PSMA-1 (10 MBq/nmol, 99%); Al[^18F]F-CHDT-PSMA-2 (6.3 MBq/nmol, 98%); Al[^18F]F-CHDT-PSMA-3 (4.5 MBq/nmol, >99%). Specificity of target binding was assessed by blocking PSMA binding sites with 2-phosphonomethyl pentanedioic acid (2-PMPA), administered simultaneously with the radioligand at a dose of 50 mg/kg. With injection of the radioligand, emission of the annihilation photons was recorded continuously in coincidence mode of 1:5 for 120 min. A corresponding CT image was acquired with each PET scan and used for attenuation correction and anatomical referencing. From three-dimensional list mode data, events within the energy window of 400–600 keV were extracted and sorted into 36 time frames (f1–f36) with a sequence of 15 × 10 s, 5 × 30 s, 5 × 60 s, 4 × 300 s, 3 × 600 s, and 4 × 900 s. For each time frame, a PET image was reconstructed with the three-dimensional (3D) Tera-Tomo algorithm, with a voxel size of 0.4 mm, applying corrections for random events, scattering, attenuation, and decay.
Three-dimensional regions of interest (ROIs) were defined within an image series of selected time frames using fixed intensity thresholds for delineation of organs: bones at knee joint position (0–120 min, 55%), cardiac blood volume (0–1.7 min, 70%), gall bladder (0–120 min, 39%), intestine (0–120 min, 5%), kidneys (0–2.5 min, 15%), liver (0–2.5 min, 55%), muscle (0–120 min, 0%), parotid glands (0–120 min, 39%), tumor (0–120 min, 39%), and urinary bladder (0–120 min, 5%). Activity concentrations in tissue were determined as standardized uptake value (SUV = [MBq detected activity/mL tissue]/[MBq injected activity/g body weight]) and expressed as SUVmean (ROI-averaged). Time-activity curves were generated and analyzed using Prism (GraphPad Software, San Diego CA, USA). […] Areas under curves (AUC) were calculated using the trapezoid rule. Statistical significance of mean differences was tested by analysis of variance (ANOVA) using the Šidák test.

PSMA [4] = biological target: T1, PSMA; assay: Saturation binding (surface-bound and internalized), LNCaP spheroids
Excerpt: as §1
For the formation of spheroids, the LNCaP cells were incubated overnight in a normal culture bottle with biocompatible nanoparticles ([…] with 80 μL of a suspension consisting of Au, Fe2O3 and poly-L-lysine called Nanoshuttle, Greiner Bio-One GmbH, Germany). After harvesting and cell counting, 10,000 cells/well of a 24-well plate or 7,000 cells/well of a 96-well plate (cell-repellent plates) were sown. The well plates were placed on matching plates with button magnets (Greiner Bio-One GmbH, Germany). The magnetized LNCaP cells formed suitable spheroids that were used after 5 d.
as §2, §3

[5] = Al^18F-labeled conjugate or [18F]PSMA-1007, surface-bound
[6] = SUVmean ratio 105–120 min after injection, mean ± SD
[7] = Al^18F-labeled conjugate or [18F]PSMA-1007, acid-resistant fraction, read-out: Kd,int (internalization)

O=C(O)CC[C@H](NC(=O)N[C@@H](CCCCNC(=O)[C@H](Cc1ccc2ccccc2c1)NC(=O)[C@H]1CC[C@H](CNC(=O)CN2CCN(CC(=O)O)CCN(CC(=O)O)CCN(CC(=O)O)CC2)CC1)C(=O)O)C(=O)O [PSMA-617]
Ki (PSMA [1]): 4.1 nM and 2.59 nM and 5.55 nM and 5.49 nM and 4.57 nM and 3.33 nM and 4.02 nM and 3.71 nM and 4.2 nM

O=C(O)CC[C@H](NC(=O)N[C@@H](CCCCNC(=O)[C@H](Cc1ccc2ccccc2c1)NC(=O)c1ccc(CNC(=O)[C@H](CCC(=O)O)NC(=O)[C@H](CCC(=O)O)NC(=O)c2ccc(F)nc2)cc1)C(=O)O)C(=O)O [[^18F]PSMA-1007]
Kd (PSMA [2]; Al^18F-labeled conjugate or [18F]PSMA-1007, surface-bound, 37 °C, 2 h, read-out: Kd (binding)): 5.4 nM

O=C(O)CC[C@H](NC(=O)N[C@@H](CCCCNC(=O)[C@H](Cc1ccc2ccccc2c1)NC(=O)c1ccc(CNC(=O)[C@H](CCC(=O)O)NC(=O)[C@H](CCC(=O)O)NC(=O)c2ccc([18F])nc2)cc1)C(=O)O)C(=O)O [[^18F]PSMA-1007]
Bmax (binding) (PSMA [2]; [5]): 1.11 pmol/mg
specific internalization in the presence of MβCD (PSMA [3]; 10 min): 0.02232 % AD/µg protein and 0.008008 % AD/µg protein
specific internalization (PSMA [3]; 10 min): 0.03696 % AD/µg protein and 0.02616 % AD/µg protein
specific internalization in the presence of MβCD (PSMA [3]; 1 h): 0.1091 % AD/µg protein and 0.02833 % AD/µg protein and 0.1038 % AD/µg protein
specific internalization (PSMA [3]; 1 h): 0.07765 % AD/µg protein and 0.1071 % AD/µg protein and 0.1171 % AD/µg protein
specific internalization in the presence of MβCD (PSMA [3]; 3 h): 0.04566 % AD/µg protein and 0.1478 % AD/µg protein and 0.1495 % AD/µg protein
specific internalization (PSMA [3]; 3 h): 0.2295 % AD/µg protein and 0.1701 % AD/µg protein and 0.1562 % AD/µg protein
average SUVmean in bone tissue (LNCaP tumor xenograft; 120 min p.i.): 0.21
Tu/Blood (LNCaP tumor xenograft; [6]): 14 ± 3.0
Tu/Bone (LNCaP tumor xenograft; [6]): 18 ± 7.9
Tu/Kidney (LNCaP tumor xenograft; [6]): 0.5 ± 0.2
Tu/Liver (LNCaP tumor xenograft; [6]): 16 ± 6.8
Tu/Muscle (LNCaP tumor xenograft; [6]): 20 ± 6.9

PSMA-1007 [reference compound]
Bmax,int (internalization) (PSMA [2]; Al^18F-labeled conjugate or [18F]PSMA-1007, acid-resistant fraction): 1.02 ± 0.21 pmol/mg
Kd (PSMA [2]; [7]): 10.1 ± 5.9 nM
Bmax (binding) (PSMA [2]; [5]): 1.11 ± 0.06 pmol/mg
Kd (PSMA [4]; [7]): 25.8 ± 18.6 nM
Kd (PSMA [4]; Al^18F-labeled conjugate or [18F]PSMA-1007, surface-bound, read-out: Kd (binding)): 12.9 ± 1.2 nM
Ki (PSMA [1]): 2 nM and 1.39 nM and 1.7 nM
